Results published in US7491747B2, “Butyric acid derivatives” (Merck Patent GmbH, priority 2001, dated 2009).

What was measured:
[1] = molecular target: T1, chimeric protein PPARα-Gal4 (Homo sapiens, UniProt Q07869); experiment: PPAR activation, Gal4 chimera luciferase reporter in co-transfected CV-1 cells; assay type: cell-based; details: 50 μM, 18 hours contact
T1 construct: Gal4 (fusion partner); expressed in transfected cells; host or cells: CV-1 cells (monkey kidney cells)
T1 sequence (Q07869 239-466 limits assumed): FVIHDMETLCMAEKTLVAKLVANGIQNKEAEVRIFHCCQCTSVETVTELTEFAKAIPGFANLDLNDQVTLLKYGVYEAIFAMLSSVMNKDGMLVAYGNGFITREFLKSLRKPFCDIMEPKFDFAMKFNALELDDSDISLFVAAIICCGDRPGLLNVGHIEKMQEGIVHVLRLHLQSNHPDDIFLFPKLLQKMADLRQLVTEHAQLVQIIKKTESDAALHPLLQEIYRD
Experimental: (§1) The measurement of the PPAR activation was performed according to a technique described by Lehmann et al. (1995, J. Biol. Chem. 270: 12953-12956).
(§2) CV-1 cells (monkey kidney cells) are co-transfected with an expression vector for the chimeric proteins PPARα-Gal4 or PPARγ-Gal4 and with a “reporter” plasmid which allows the expression of the luciferase gene placed under the control of a promoter containing Gal4 response elements.
(§3) The cells are inoculated in 96-zwell microplates and co-transfected using a commercial reagent with the reporter plasmid (pG5-tk-pGL3) and the expression vector for the chimeric protein (PPARα-Gal4 or PPARγ-Gal4). After incubating for 4 hours, whole culture medium (containing 10% foetal calf serum) is added to the wells. After 24 hours, the medium is removed and replaced with whole medium containing the test products (50 μM final). The products are left in contact with the cells for 18 hours. The cells are then lysed and the ludferase activity is measured using a luminometer. A PPAR activation factor can then be calculated by means of the activation of the expression of the reporter gene induced by the product (relative to the control cells that have not received any product).

[2] = molecular target: T2, chimeric protein PPARγ-Gal4 (Homo sapiens, UniProt P37231); experiment: as above; assay type: cell-based; details: 50 μM, 18 hours contact
T2 construct: Gal4 (fusion partner); expressed in transfected cells; host or cells: CV-1 cells (monkey kidney cells)
T2 sequence (P37231 238-503 limits assumed): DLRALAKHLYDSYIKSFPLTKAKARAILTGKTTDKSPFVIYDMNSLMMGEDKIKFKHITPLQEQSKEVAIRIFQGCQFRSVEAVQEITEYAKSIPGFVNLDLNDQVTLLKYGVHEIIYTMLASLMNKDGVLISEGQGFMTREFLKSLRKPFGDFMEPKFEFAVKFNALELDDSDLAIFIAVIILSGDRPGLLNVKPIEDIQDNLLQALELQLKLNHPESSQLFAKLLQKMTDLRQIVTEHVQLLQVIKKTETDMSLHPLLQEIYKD
Experimental: as §1, §2, §3

[3] = test system: vector expressing Gal4 alone; experiment: Luciferase reporter control without PPAR ligand binding region in CV-1 cells; assay type: cell-based; details: in the presence of the product
Text: CV-1 cells (monkey kidney cells) are co-transfected with an expression vector for the chimeric proteins PPARα-Gal4 or PPARγ-Gal4 and with a “reporter” plasmid which allows the expression of the luciferase gene placed under the control of a promoter containing Gal4 response elements. The cells are inoculated in 96-zwell microplates and co-transfected using a commercial reagent with the reporter plasmid (pG5-tk-pGL3) and the expression vector for the chimeric protein (PPARα-Gal4 or PPARγ-Gal4). After incubating for 4 hours, whole culture medium (containing 10% foetal calf serum) is added to the wells. After 24 hours, the medium is removed and replaced with whole medium containing the test products (50 μM final). The products are left in contact with the cells for 18 hours. The cells are then lysed and the ludferase activity is measured using a luminometer. A PPAR activation factor can then be calculated by means of the activation of the expression of the reporter gene induced by the product (relative to the control cells that have not received any product). […] In the absence of the binding region for the PPARα or γ ligand (vector expressing Gal4 alone), the luciferase activity measured in the presence of this product is zero.

db/db mice = experiment: Antidiabetic and hypolipidaemiant activity, oral, in db/db mice; assay type: in vivo; details: oral 20 mg/kg/day for 15 days
Experimental: The antidiabetic and hypolipidaemiant activity of the compounds was determined orally in db/db mice.
16 week-old db/db mice are treated orally for 15 days with the compound of Example 5 (20 mg/kg/day). Each group studied comprises seven animals. After treatment for 15 days, retro-orbital samples are taken after a mild anaesthesia and fasting for 4 hours.
The following parameters were measured:
Glycaemia assay (glucose oxidase) and assay of the lipid parameters on the sera at D15 (COBAS): triglycerides, total cholesterol (CHOL), the HDL cholesterol (HDL-C) and the free fatty acids (FFA) (BioMérieux and Waco Chemicals assay kit).
The measurements given represent mean values±standard error.

[4] = serum D15, mean ± standard error

PPAR activation factor (reporter gene expression relative to control cells) [1]: nine
PPAR activation factor (reporter gene expression relative to control cells) [2]: six
melting point: 108 to 110 °C
Compound: O=C(O)C(CCSc1ccccc1)Oc1ccc(C(F)(F)F)cc1 (centres unmarked) [Example 5, 4-phenylsulphanyl-2-(4-trifluoromethylphenoxy)butyric acid]
luciferase activity in the absence of the binding region for the PPARα or γ ligand [3]: zero
CHOL, % variation relative to the control (db/db mice; D15, * p < 0.05 vs control): 47* %
FFA, % variation relative to the control (db/db mice; D15, * p < 0.05 vs control): −38* %
Glycaemia, % variation relative to the control (db/db mice; D15, * p < 0.05 vs control): −59* %
HDL-C, % variation relative to the control (db/db mice; D15, * p < 0.05 vs control): 36* %
Triglycerides, % variation relative to the control (db/db mice; D15, * p < 0.05 vs control): −47* %
Glycaemia (db/db mice; D15, fasting 4 hours, mean ± standard error): 11.1 ± 3.3 mM
CHOL (total cholesterol) (db/db mice; [4]): 5.4 ± 0.9 mM
FFA (free fatty acids) (db/db mice; [4]): 0.4 ± 0.0 mM
HDL-C (db/db mice; [4]): 4.3 ± 0.6 mM
Triglycerides (db/db mice; [4]): 0.7 ± 0.1 mM
